Reference: patent publication US6124323A, “4-substituted piperidine analogs and their use as subtype selective NMDA receptor antagonists” (Warner-Lambert Company, priority 1998, dated 2000)
Where a name gives a salt, the structure may show the parent alone.

Legend:
[1] = tested on: d-amphetamine induced stimulation; details: injected into rat nucleus accumbens or striatum; cited from earlier work
[2] = tested on: PCP and MK801-induced behavioral arousal; details: in vivo; cited from earlier work
[3] = target: T1, NMDA receptor subunits 1A/2A (Rattus norvegicus, UniProt P35439+Q00959); assay: Electrophysiological assay at NMDA receptor subunits expressed in Xenopus oocytes, 1A/2A; type: cell-based; details: glutamate 100 μm and glycine 1-100 μm
T1 construct: expressed in transfected cells; host or cells: Xenopus laevis oocytes (cRNA injection; clones from Dr. P. H. Seeburg)
In short: (§1)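 Two-electrode voltage clamp of Xenopus oocytes injected with rat NR1A plus NR2A, 2B or 2C cRNA (1:1), recorded 3–21 days post-injection in Ringer's, pH 7.4. Currents evoked by glutamate (100 μm) with glycine (1–100 μm); antagonist applied by bath perfusion at rising concentrations, IC50 from logistic fit or linear regression for incomplete curves.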

[4] = target: T2, NMDA receptor subunits 1A/2B (Rattus norvegicus, UniProt P35439+Q00960); assay: Electrophysiological assay at NMDA receptor subunits expressed in Xenopus oocytes, 1A/2B; type: cell-based; details: Xenopus oocytes; glutamate 100 μm and glycine 1-100 μm; read-out: Subunits IC50, 1A/2B
T2 construct: expressed in transfected cells; host or cells: Xenopus laevis oocytes (cRNA injection; clones from Dr. P. H. Seeburg)
In short: as §1

[5] = target: T3, NMDA receptor subunits 1A/2C (Rattus norvegicus, UniProt P35439+Q00961); assay: Electrophysiological assay at NMDA receptor subunits expressed in Xenopus oocytes, 1A/2C; type: cell-based; details: Xenopus oocytes; glutamate 100 μm and glycine 1-100 μm; read-out: Subunits IC50, 1A/2C
T3 construct: expressed in transfected cells; host or cells: Xenopus laevis oocytes (cRNA injection; clones from Dr. P. H. Seeburg)
In short: as §1

[6] = tested on: Maximal Electroshock-induced Seizures; assay: Maximal electroshock-induced seizures (MES); type: in vivo; details: Mus musculus; mice; 50 mA, 60 pulses/sec, 1 sec
Text: Seizures were induced by application of current (50 mA, 60 pulses/sec, 0.8 sec pulse width, 1 sec duration, d.c.) through saline-coated corneal electrodes using a Ugo Basile ECT device (Model 7801). […] A tonic seizure was defined as a hindlimb extension in excess of 90 degrees from the plane of the body.

[7] = tested on: focal ischemia (MCA occlusion); assay: Induction of focal ischemia (MCA occlusion), infarct volume; type: in vivo, rats; details: for Mean Infarct Volume: mean ± S.E.M.
Procedure: Induction of Focal Ischemia
Rats were intubated and maintained under anesthesia with 2% of halothane. Body temperature was maintained at 37.5° C. during surgery by means of a warming pad and a rectal probe connected to the control unit. The common carotid arteries (CCA) were isolated, and a loose silk ligature was placed around each CCA. A vertical skin incision was made between the left orbit and the auditory canal. The posterior part of the zygoma was removed and a small opening (2.0-2.5 mm) was drilled dorsorostrally to the foramen ovale under constant saline irrigation. The dura was opened with a microsurgical hook and the brain gently retracted to expose the bifurcation of the internal carotid artery and the middle cerebral artery (MCA). The ipsilateral CCA was ligated and the MCA coagulated from its origin to the olfactory tract. The contralateral CCA was occluded with an arterial clip. All cuts were sutured and an i.v. line was connected to an infusion pump for delivery of the compound of the invention. Two hours after MCA occlusion, the clip on the contralateral CCA was removed. Rectal temperature was measured 2 hours after MCA occlusion (MCA-0).

[8] = tested on: micturition; details: rat; cited from earlier work
[9] = tested on: anxiety; details: in vivo; cited from earlier work
[10] = tested on: Parkinson's disease; details: at plasma levels leading to NMDA receptor antagonism; cited from earlier work

T1 sequence (Q00959 20-1464 limits assumed, other chains not shown): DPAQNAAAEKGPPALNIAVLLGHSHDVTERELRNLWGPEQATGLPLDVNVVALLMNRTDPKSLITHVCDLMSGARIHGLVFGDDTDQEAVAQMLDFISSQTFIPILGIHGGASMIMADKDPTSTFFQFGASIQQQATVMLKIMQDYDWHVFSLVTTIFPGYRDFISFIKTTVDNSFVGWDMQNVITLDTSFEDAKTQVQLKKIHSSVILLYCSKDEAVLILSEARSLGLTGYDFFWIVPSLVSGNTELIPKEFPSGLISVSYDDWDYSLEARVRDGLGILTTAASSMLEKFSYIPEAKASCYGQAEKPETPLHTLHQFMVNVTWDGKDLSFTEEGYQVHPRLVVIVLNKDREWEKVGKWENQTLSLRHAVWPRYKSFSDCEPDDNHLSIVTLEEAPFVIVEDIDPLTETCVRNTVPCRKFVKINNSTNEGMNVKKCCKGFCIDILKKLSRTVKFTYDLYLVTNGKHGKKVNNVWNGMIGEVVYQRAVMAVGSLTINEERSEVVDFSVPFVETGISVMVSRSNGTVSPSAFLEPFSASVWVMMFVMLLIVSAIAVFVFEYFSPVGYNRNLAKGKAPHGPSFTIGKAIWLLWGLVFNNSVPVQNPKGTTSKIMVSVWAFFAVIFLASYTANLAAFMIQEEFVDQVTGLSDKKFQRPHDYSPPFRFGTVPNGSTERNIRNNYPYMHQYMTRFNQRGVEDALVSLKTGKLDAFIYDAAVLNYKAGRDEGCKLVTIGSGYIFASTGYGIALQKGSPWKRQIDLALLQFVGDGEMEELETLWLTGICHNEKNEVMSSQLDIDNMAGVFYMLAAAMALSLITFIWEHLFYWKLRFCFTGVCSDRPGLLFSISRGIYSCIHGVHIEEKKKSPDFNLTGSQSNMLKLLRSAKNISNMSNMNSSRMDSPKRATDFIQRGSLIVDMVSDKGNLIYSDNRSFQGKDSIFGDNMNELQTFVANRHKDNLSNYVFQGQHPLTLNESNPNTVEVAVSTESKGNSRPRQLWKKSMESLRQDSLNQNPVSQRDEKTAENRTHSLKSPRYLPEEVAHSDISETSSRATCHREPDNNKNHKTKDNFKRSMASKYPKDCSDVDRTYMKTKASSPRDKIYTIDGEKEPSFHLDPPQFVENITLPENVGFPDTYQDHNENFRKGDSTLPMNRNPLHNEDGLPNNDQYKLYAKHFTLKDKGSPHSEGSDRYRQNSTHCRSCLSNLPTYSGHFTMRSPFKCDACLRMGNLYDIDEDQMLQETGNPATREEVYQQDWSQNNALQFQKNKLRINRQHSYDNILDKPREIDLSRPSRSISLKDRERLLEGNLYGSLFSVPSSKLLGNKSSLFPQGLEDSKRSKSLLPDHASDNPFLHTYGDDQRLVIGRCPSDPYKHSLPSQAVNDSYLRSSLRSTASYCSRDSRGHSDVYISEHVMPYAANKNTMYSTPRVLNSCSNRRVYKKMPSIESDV
T2 sequence (Q00960 27-1482, other chains not shown): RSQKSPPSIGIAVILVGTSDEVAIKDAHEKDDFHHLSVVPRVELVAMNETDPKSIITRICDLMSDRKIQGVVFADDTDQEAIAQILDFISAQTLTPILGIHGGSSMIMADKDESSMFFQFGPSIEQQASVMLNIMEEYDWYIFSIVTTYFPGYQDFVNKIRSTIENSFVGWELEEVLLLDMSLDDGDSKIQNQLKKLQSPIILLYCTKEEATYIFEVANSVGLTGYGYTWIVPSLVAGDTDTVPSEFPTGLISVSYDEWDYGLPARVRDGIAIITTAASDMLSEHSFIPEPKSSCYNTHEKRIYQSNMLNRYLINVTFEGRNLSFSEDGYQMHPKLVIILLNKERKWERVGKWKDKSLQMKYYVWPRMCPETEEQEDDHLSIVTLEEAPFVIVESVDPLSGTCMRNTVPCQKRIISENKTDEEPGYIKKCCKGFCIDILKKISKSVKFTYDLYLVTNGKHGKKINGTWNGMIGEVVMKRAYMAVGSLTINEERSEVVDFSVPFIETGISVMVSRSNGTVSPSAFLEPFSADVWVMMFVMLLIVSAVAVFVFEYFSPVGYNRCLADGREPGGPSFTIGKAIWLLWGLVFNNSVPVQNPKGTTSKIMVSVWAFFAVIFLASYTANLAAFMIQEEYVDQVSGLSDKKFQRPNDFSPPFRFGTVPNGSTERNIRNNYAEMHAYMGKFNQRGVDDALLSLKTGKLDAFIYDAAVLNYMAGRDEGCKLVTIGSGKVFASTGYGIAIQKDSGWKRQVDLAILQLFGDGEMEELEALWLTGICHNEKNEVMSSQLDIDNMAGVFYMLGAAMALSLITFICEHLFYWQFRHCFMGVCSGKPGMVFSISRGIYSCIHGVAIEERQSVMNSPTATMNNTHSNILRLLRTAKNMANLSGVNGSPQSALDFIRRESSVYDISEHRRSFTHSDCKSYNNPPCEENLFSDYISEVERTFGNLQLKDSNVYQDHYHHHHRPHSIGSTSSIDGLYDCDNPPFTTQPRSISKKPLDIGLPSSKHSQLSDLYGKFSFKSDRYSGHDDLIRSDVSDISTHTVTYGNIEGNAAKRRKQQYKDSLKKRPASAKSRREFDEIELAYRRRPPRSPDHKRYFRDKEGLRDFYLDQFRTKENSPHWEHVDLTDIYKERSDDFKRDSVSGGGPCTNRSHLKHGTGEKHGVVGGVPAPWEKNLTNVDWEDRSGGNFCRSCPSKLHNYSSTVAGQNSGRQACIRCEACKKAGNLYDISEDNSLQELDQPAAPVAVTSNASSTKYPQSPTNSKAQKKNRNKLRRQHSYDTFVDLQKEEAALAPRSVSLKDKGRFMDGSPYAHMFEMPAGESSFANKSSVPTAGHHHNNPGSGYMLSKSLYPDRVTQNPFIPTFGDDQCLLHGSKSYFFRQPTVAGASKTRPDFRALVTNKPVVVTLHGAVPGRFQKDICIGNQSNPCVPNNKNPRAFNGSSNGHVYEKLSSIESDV
T3 sequence (Q00961 20-1237, other chains not shown): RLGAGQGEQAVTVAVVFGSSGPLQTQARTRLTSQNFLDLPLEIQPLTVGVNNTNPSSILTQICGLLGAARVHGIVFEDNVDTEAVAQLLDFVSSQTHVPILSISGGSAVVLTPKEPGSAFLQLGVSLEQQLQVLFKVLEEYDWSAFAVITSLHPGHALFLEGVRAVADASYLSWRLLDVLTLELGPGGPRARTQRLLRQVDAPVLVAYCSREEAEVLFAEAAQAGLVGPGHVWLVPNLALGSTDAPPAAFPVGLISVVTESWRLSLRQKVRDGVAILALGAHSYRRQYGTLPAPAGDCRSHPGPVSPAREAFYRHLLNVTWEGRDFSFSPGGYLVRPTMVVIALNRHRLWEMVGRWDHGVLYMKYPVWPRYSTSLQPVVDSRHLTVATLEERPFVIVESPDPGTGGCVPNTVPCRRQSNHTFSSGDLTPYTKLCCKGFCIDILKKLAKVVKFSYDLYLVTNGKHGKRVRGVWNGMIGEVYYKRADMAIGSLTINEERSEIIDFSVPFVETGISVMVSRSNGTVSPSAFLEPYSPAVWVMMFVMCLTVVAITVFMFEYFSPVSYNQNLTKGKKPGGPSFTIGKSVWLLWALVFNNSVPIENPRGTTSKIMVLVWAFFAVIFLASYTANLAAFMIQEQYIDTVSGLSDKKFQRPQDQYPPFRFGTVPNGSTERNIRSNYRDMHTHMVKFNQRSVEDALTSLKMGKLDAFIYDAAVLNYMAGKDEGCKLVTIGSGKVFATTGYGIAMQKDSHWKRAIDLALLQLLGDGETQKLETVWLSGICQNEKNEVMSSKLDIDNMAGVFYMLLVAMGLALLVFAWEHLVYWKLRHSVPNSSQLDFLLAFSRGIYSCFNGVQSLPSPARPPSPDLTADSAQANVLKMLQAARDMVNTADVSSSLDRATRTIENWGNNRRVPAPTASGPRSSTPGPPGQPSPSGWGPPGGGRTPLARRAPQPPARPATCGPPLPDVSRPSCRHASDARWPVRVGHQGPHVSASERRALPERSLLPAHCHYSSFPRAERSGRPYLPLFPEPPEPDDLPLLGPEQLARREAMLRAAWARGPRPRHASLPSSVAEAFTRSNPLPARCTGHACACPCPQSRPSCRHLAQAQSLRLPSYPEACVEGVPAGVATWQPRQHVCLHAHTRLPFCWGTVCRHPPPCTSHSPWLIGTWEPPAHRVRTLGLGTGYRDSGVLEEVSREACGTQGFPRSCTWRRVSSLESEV

Structure (SMILES) | IC50 [3] | IC50 [4] | IC50 [5] | ED50 [6] | also measured
O=C(O)c1cc(O)c2c(Cl)cc(Cl)cc2n1 [5,7-dichlorokynurenic acid] |  |  |  |  | antagonism of d-amphetamine induced stimulation [1]: selectively antagonize d-amphetamine induced stimulation when injected into rat nucleus accumbens but not in striatum
N[C@@H]1CCN(O)C1=O [(+) HA-966] |  |  |  |  | antagonism of d-amphetamine induced stimulation [1]: selectively antagonize d-amphetamine induced stimulation when injected into rat nucleus accumbens but not in striatum; block of PCP and MK801-induced behavioral arousal [2]: block PCP and MK801-induced behavioral arousal
c1ccc(CC2CCN(CCOc3ccccc3)CC2)cc1 [Ex. 1, 4-Benzyl-1-(2-phenoxyethyl)piperidine] | > 100 µM | 0.8 µM | > 100 µM | 2 mg/kg | Mean Infarct Volume ([7]; Cortex, rats, 2.5 mg/Kg i.v. bolus then 1.75 mg/Kg for 22 hours, n = 12, vehicle 120.450 ± 20.166): 50.450 ± 11.428 mm^3; % of Ischemia Protection ([7]; Cortex, rats, 2.5 mg/Kg i.v. bolus then 1.75 mg/Kg for 22 hours, p = 0.0071): 58%; Mean Infarct Volume ([7]; Subcortex, rats, 2.5 mg/Kg i.v. bolus then 1.75 mg/Kg for 22 hours, n = 12, vehicle 74.462 ± 7.481): 67.400 ± 6.775 mm^3; % of Ischemia Protection ([7]; Subcortex, rats, 2.5 mg/Kg i.v. bolus then 1.75 mg/Kg for 22 hours, p = 0.4936): 9.5%; protection from ischemia ([7]; table 4 and FIG. 1, 2.5 mg/Kg i.v. bolus then 1.75 mg/Kg for 22 hours): significant protection from ischemia
Fc1ccc(OCCN2CCC(Cc3ccc(Cl)cc3)CC2)cc1 [Ex. 25, 4-(4-Chlorobenzyl)-1-(2-(4-fluorophenoxy)ethyl)piperidine hydrobromide] | 60 µM | 1 µM | 80 µM | 4 mg/kg | Mean Infarct Volume ([7]; Cortex, 10 mg/Kg i.v. bolus, n = 7, vehicle 114.936 ± 22.3): 41.857 ± 19.984 mm^3; % of Ischemia Protection ([7]; Cortex, 10 mg/Kg i.v. bolus, p = 0.0381): 64%; Mean Infarct Volume ([7]; Subcortex, 10 mg/Kg i.v. bolus, n = 7, vehicle 81.564 ± 5675): 43.343 ± 17.37 mm^3; % of Ischemia Protection ([7]; Subcortex, 10 mg/Kg i.v. bolus, p = .0320): 47%; protection from ischemia ([7]; Table 5 and FIG. 2, 10 mg/Kg i.v. bolus): significant protection from ischemia
S=c1[nH]c2ccc(OCCN3CCC(Cc4ccc(Cl)cc4)CC3)cc2[nH]1 [Ex. 176, 4-(4-Chlorobenzyl)-1-(2-(2-thioxobenzimidazol-5-oxy)ethyl)piperidine] | 25 µM | 0.03 µM | 50 µM | 7.5 mg/kg | 
O=c1[nH]c2ccc(OCCN3CC=C(Cc4ccccc4)CC3)cc2[nH]1 [Ex. 177, 4-Benzyl-1-(2-(2-oxobenzimidazol-5-oxy)ethyl)-1,2,5,6-tetrahydropyridine] | 35 µM | 0.1 µM | 210 µM | 5 mg/kg | 
O=c1[nH]c2cc(OCCN3CCC(Cc4ccccc4)CC3)ccc2o1 [Ex. 181, 4-Benzyl-1-(2-(2-oxobenzoxazol-5-oxy)ethyl)piperidine] | 110 µM | 1 µM | 140 µM | 6 mg/kg | 
O=c1[nH]c2ccc(OCCN3CCC(Cc4ccccc4)CC3)cc2o1 [Ex. 182, 4-Benzyl-1-(2-(2-oxobenzoxazol-6-oxy)ethyl)piperidine] | 43 µM | 1 µM | 210 µM | > 20 mg/kg | 
Oc1ccc2cc(OCCN3CCC(Cc4ccccc4)CC3)ccc2c1 [Ex. 189, 4-Benzyl-1-(2-(2-hydroxynaphth-6-oxy)ethyl)piperidine] | 7 µM | 0.1 µM | 130 µM | 7 mg/kg | 
O=C1Cc2cc(OCCN3CCC(Cc4ccccc4)CC3)ccc2N1 [Ex. 194, 4-Benzyl-1-(2-(2-oxo-1,3-dihydroindol-5-oxy)ethyl)piperidine] | > 300 µM | 0.06 µM | > 300 µM | 2.5 mg/kg | 
C[C@]12N[C@H](Cc3ccccc31)c1ccccc12 [MK801] |  |  |  |  | frequency of micturition [8]: increased the frequency of micturition in rat; effect in animal models of anxiety [9]: effective in a variety of animal models of anxiety
NC12CC3CC(CC(C3)C1)C2 [amantadine] |  |  |  |  | antiparkinsonian-like activity in animals [10]: showed antiparkinsonian-like activity in animals
CC12CC3CC(C)(C1)CC(N)(C3)C2 [memantine] |  |  |  |  | antiparkinsonian-like activity in animals [10]: showed antiparkinsonian-like activity in animals
